From patent US7387796B2, “Stable compositions of S-adenosyl-l-methionine with dextran” (priority 2002, dated 2008)

Assays:
[1] = 10 ng/ml injected; sample left at room temperature in the light for 12 months, no special protection
[2] = oral, alcoholic liver cirrhosis, compared with placebo treated group; cited from earlier work
[3] = patients with Alzheimer's disease, preliminary study; cited from earlier work
[4] = oral administration, patients with and without liver disease; cited from earlier work
[5] = oral administration, intrahepatic cholestasis; cited from earlier work
[6] = oral administration, short term trial; cited from earlier work
[7] = in vivo; cited from earlier work

## C[S+](CC[C@H](N)C(=O)[O-])C[C@H]1O[C@@H](n2cnc3c(N)ncnc32)[C@H](O)[C@@H]1O (some centres unmarked) [SAM-e, S-adenosyl-1-methionine]
[1]
  Area of HPLC peak: 189251
  conc.: 10 ng/mL
[2]
  overall mortality and/or progression to liver transplant: 12%
[3]
  cognitive effect: cognitive improvement
[4]
  liver glutathione levels: increases in liver glutathione levels
[5]
  pruritus and biochemical markers of cholestasis: improvements in both the pruritus as well as the biochemical markers of cholestasis
[6]
  clinical effect in primary fibromyalgia: significant improvement
[7]
  toxicity in clinical use: absence of toxicity
